Experiments:
[1] = system: MUC1-wt; assay: High-content imaging assay of MUC1-wt total cytoplasm intensity in P cells; type: cell-based; details: for EC50: MUC1-wt total cytoplasm intensity, P cells, 48 hr incubation; for WT ECMax: MUC1-wt, DMSO = 0, JQ1 (250 nM) = −100% activity
Protocol: (§1) P cells were seeded 24 hr prior to compound treatment at a density of 12,000 cells/well in 384 well Cell Carrier Ultra plates (6057308, Perkin Elmer), pre-coated with 0.25 mg/mL Synthemax 11 SC Substrate (3535, Corning). Compounds were used at 5 doses (35, 3.5, 0.35, 0.035 and 0.0035 μM) for the primary screen and 10 doses (16, 5.6, 1.8, 0.6, 0.21, 0.07, 0.02, 0.008, 0.002 and 0.0008 μM) for the following screens. The compounds, in two replicates, were transferred from compound source plates to the cell plates using the HighRes Pin Tool. DMSO was used as a negative control and JQ1 (250 nM) (a bromodomain inhibitor) was chosen as a positive control, based on earlier studies showing its potent effect on reducing total MUC1 mRNA levels (data not shown). After 48 hr incubation, cells were fixed for 20 min in 4% PFA (Electron Microscopy Sciences) in PBS, washed twice, then permeabilized (10 min) with 0.5% Triton-X100 (X100-100MVL, Sigma-Aldrich) in PBS and washed once more. Cells were blocked for 10 min at RT with Blocking solution (100 mM Tris HCL pH8; l150 mM NaCL; 5 g/L Blocking Reagent [11096176001, Roche]), then incubated 90 min at RT with one of the following primary antibodies in Roche Blocking solution: 1:500, monoclonal Fab-A-V5H anti-MUC1-fs, AbD22655.2, Bio-Rad; 1:2000, monoclonal mouse anti-MUC1 (214D4), 05-652-KC, Millipore; 1:1000, monoclonal, Rabbit anti-GM130 (D6B1) XP, 12480, Cell signaling technology. The primary antibody cocktail was incubated at RT for 1.5 hr, followed by four PBS wash cycles. The secondary antibody cocktail contained four components that were all prepared at a 1:1000 dilution in the Roche blocking solution and consisted of Alexa Fluor® 488-conjugated AffiniPure F(ab′)2 Fragment Goat anti-Human IgG, 109-546-097, Jackson Immunoresearch; Alexa Fluor® 647-conjugated Goat anti-Rabbit IgG, A-21246, Thermo Fisher Scientific®; Alexa Fluor® 546 Goat anti-mouse IgG, A-21123, Thermo Fisher Scientific® and Hoechst 33342 stain (62249, Thermo Fisher Scientific®). The secondary antibody cocktail was incubated at RT for 45 min, followed by four PBS wash cycles. Finally, plates were sealed with a Plate Loc plate and stored in Liconic incubator at 10° C. until imaging. Following image analysis, three parameters were selected, i) MUC1-fs and ii) MUC1-wt total cytoplasm intensity (averaged per cell) and iii) cell number as was detected by Hoechst 33342 stained nuclei. The levels of MUC1-fs and MUC1-wt found following DMSO and JQ1 were defined as 0 and −100% activity, respectively. The values obtained for all compounds were normalized accordingly. Cell number was normalized to DMSO control.
(§2) The pure enantiomers were profiled in the high-content imaging assay for the ability to reduce the amount of FS MUC1 protein in the cytoplasm (Table 48) following the procedure of Example 4.

[2] = system: MUC1-fs; assay: High-content imaging assay of MUC1-fs total cytoplasm intensity in P cells; type: cell-based; details: for EC50: MUC1-fs total cytoplasm intensity, P cells, 48 hr incubation; for ECMax: MUC1-fs, DMSO = 0, JQ1 (250 nM) = −100% activity
Protocol: as §1, §2

SMILES	EC50 [1]	EC50 [2]	WT ECMax [1]	ECMax [2]
Cl.N[C@H]1[C@H]2CC[C@H](C2)[C@@H]1C1CCCC1 (single isomer, unassigned) [Compound 116-P2]	> 32 µM	> 32 µM	−19.89%	−16.96%
Cl.N[C@H]1[C@H]2CC[C@H](C2)[C@@H]1C1CCCCC1 (single isomer, unassigned) [Compound 118-P2]	> 32 µM	> 32 µM	0%	0%
Cl.N[C@H]1[C@H]2CC[C@H](C2)[C@@H]1c1ccccc1 (single isomer, unassigned) [Compound 120-P2]	> 32 µM	> 32 µM	−11.21%	−24.61%
Cl.N[C@@H]1[C@H]2CC[C@H](C2)[C@H]1c1ccccc1 (single isomer, unassigned) [Compound 121-P2]	> 32 µM	> 32 µM	7.35%	−9.03%
CC(C)[C@H]1[C@H]2CC[C@H](C2)[C@@H]1N.Cl [Compound 102]	> 32 µM	8.63 µM	−16.83%	−60.66%
CCC[C@@H]1[C@H]2CC[C@H](C2)[C@H]1N.Cl [Compound 107-P1]	> 32 µM	25.8 µM	14.07%	−15.72%
CCC[C@H]1[C@@H]2CC[C@@H](C2)[C@@H]1N.Cl [Compound 107-P2]	> 32 µM	> 32 µM	8.96%	−9.6%
CCC[C@H]1[C@H]2CC[C@H](C2)[C@@H]1N.Cl [Compound 108-P1]	> 32 µM	29.9 µM	−12.05%	−24.9%
CCC[C@@H]1[C@@H]2CC[C@@H](C2)[C@H]1N.Cl [Compound 108-P2]	> 32 µM	5.6 µM	16.1%	22.43%

More lines, main results first:

EC50 [1]	EC50 [2]	SMILES	WT ECMax [1]	ECMax [2]
> 32 µM	29.9 µM	Cl.N[C@H]1[C@@H]2CC[C@@H](C2)[C@@H]1C1CCC1 (single isomer, unassigned) [Compound 114-P1]	5.99%	−28.1%
> 32 µM	> 32 µM	Cl.N[C@@H]1[C@H]2CC[C@H](C2)[C@H]1C1CCC1 (single isomer, unassigned) [Compound 114-P2]	9.94%	−15.43%
> 32 µM	> 32 µM	Cl.N[C@@H]1[C@@H]2CC[C@@H](C2)[C@H]1C1CCCC1 (single isomer, unassigned) [Compound 116-P1]	18.63%	−10.6%
> 32 µM	25.9 µM	Cl.N[C@H]1[C@@H]2CC[C@@H](C2)[C@@H]1C1CCCC1 (single isomer, unassigned) [Compound 117-P1]	7.72%	−16.91%
> 32 µM	> 32 µM	Cl.N[C@@H]1[C@H]2CC[C@H](C2)[C@H]1C1CCCC1 (single isomer, unassigned) [Compound 117-P2]	−15.43%	−15.88%
> 32 µM	> 32 µM	Cl.N[C@@H]1[C@@H]2CC[C@@H](C2)[C@H]1C1CCCCC1 (single isomer, unassigned) [Compound 118-P1]	9.54%	−7.97%
> 32 µM	> 32 µM	Cl.N[C@H]1[C@@H]2CC[C@@H](C2)[C@@H]1C1CCCCC1 (single isomer, unassigned) [Compound 119-P1]	−14.31%	−14.14%
> 32 µM	> 32 µM	Cl.N[C@@H]1[C@H]2CC[C@H](C2)[C@H]1C1CCCCC1 (single isomer, unassigned) [Compound 119-P2]	0%	0%
12.3 µM	0.524 µM	CC(C)[C@@H]1[C@@H]2CC[C@@H](C2)[C@H]1N.Cl [Compound 101]	18.4%	−68.74%

Source: US20240116850A1, “COMPOSITIONS AND METHODS RELATED TO BICYCLO[2.2.1] HEPTANAMINE-CONTAINING COMPOUNDS” (The Broad Institute, Inc., priority 2020, published 2024)
